Read-outs that look alike come from different tables or passages of the source.
What was measured:
[1] = target: T1, hCB1 (Homo sapiens, UniProt P21554); assay: [3H]CP55, […] displacement, CHO membranes; assay type: binding; details: read-out: CHO membranes / h CB 1
T1 construct: gene CNR1; full-length receptor in CHO cell membranes

[2] = target: T2, hCOX-2 (Homo sapiens, UniProt P35354); assay: fluorescent COX inhibitor assay (ADHP), recombinant hCOX-2; assay type: biochemical; details: read-out: h COX-2 / AA
T2 construct: gene PTGS2
T2 sequence (P35354 18-604): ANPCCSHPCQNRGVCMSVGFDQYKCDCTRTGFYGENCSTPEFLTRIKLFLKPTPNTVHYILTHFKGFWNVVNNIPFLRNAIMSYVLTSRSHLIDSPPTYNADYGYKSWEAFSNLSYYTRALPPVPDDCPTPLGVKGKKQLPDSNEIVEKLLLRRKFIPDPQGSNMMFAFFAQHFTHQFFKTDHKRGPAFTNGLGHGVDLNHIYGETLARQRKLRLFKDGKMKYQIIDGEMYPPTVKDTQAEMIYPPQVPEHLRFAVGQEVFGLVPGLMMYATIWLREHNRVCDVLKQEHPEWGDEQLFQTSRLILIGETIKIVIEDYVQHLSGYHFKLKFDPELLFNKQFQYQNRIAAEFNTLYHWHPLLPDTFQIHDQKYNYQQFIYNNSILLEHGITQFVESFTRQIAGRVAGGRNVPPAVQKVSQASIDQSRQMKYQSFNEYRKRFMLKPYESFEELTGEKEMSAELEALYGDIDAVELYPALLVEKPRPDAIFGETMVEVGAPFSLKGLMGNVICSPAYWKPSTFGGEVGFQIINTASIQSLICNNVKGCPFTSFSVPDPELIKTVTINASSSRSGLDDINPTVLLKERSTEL
From the text: fluorescent COX inhibitor assay (ADHP), recombinant hCOX-2 on hCOX-2

[3] = target: T3, hCB2 (Homo sapiens, UniProt P34972); assay: […]GTPγS binding, CHO-hCB2 membranes; assay type: biochemical; details: read-out: CHO membranes / h CB2 [ ^35 S] GTPγS
T3 construct: gene CNR2; full-length receptor in CHO-K1 cells, membranes or intact cells; PathHunter CHO-K1-HOMSA-CNR2 for beta-arrestin

[4] = target: T3, hCB2; assay: [3H]CP55, […] displacement, CHO membranes; assay type: binding
[5] = target: T3, hCB2; assay: […]GTPγS binding, CHO-hCB2 membranes; assay type: biochemical
[6] = target: T3, hCB2; assay: forskolin-induced cAMP, GloSensor, CHO-hCB2 cells; assay type: cell-based; details: read-out: CHO cells / h CB2 cAMP
From the text: forskolin-induced cAMP, GloSensor, CHO-hCB2 cells on hCB2

[7] = read-out: CHO membranes / h CB 2

T3 sequence (P34972 whole entry): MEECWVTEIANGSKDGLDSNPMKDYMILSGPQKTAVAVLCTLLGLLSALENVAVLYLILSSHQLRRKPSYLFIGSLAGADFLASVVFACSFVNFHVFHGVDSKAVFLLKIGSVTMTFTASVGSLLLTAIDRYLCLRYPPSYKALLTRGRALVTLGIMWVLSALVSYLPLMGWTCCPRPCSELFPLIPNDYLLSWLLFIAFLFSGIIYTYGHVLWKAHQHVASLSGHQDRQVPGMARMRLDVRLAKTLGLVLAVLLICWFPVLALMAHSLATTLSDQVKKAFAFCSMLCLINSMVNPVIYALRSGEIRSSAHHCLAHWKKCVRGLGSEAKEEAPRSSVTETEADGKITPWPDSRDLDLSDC
T1 sequence (P21554 whole entry): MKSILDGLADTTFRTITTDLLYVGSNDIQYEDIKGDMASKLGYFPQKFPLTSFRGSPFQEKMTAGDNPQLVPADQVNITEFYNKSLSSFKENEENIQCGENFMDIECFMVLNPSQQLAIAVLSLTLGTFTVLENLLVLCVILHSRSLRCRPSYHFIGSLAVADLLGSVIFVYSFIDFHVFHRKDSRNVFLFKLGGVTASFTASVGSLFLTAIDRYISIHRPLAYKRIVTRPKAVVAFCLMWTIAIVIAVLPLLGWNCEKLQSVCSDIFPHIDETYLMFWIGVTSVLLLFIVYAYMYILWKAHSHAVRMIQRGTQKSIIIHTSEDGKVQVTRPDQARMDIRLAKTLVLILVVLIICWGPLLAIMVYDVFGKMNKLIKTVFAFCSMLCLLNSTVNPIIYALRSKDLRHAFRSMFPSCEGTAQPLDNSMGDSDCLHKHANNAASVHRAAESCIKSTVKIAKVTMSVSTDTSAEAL

SMILES | Ki [1] [nM] | IC50 [2] [nM] | Ki [4, 7] [nM] | further results
C=CCc1ccc(OCCCC)c(-c2ccc(O)c(CC=C)c2)c1 [34a, 2-butyloxy-5,3′-di-(2-propenyl)-biphenyl-4′-ol] | 1120 ± 150 | 4310 ± 100 | 350 ± 110 | IC50 [3]: 1820 ± 140 nM
CCC(C)c1ccc(O)c(-c2cc(C(C)CC)ccc2O)c1 (stereo not shown) [compound 32, 5,5′-di-sec-butyl-biphenyl-2,2′-diol] |  | 10200 ± 120 |  | Ki [4]: > 10000 nM
C=CCc1ccc(O)c(-c2ccc(OC)c(CC=C)c2)c1 [MH, 4′-methoxy-5,3′-di-(2-propenyl)-biphenyl-2-ol] |  |  |  | IC50 ([2]; substrate arachidonic acid 10 μM, heme, pH 8, 15 min pre-incubation, RT): 580 ± 80 nM
CCCCC/C=C\C/C=C\C/C=C\C/C=C\CCCC(=O)OC(CO)CO [2-AG] |  |  |  | EC50 ([5]; read-out: EC50): 74 nM
C=CCc1ccc(OC)c(-c2ccc(O)c(CC=C)c2)c1 [27a, 2-methoxy-5,3′-di-(2-propenyl)-biphenyl-4′-ol] | 790 ± 100 | 1210 ± 80 | 110 ± 90 | EC50 ([5]; read-out: CHO membranes / h CB2 [ ^35 S] GTPγS): 180 ± 90 nM; IC50 [6]: 710 ± 90 nM

— paper PMC4490613 (Journal of Neuroinflammation, 2015)
